One compound from paper PMC5206433 (BioMed Research International, 2016) can be followed below.

The test deals with integrin αIIbβ3 (Homo sapiens, UniProt P05106+P08514). Type of test: binding.

The structures appear in SMILES notation.

integrin αIIbβ3, sequence (P08514 32-887): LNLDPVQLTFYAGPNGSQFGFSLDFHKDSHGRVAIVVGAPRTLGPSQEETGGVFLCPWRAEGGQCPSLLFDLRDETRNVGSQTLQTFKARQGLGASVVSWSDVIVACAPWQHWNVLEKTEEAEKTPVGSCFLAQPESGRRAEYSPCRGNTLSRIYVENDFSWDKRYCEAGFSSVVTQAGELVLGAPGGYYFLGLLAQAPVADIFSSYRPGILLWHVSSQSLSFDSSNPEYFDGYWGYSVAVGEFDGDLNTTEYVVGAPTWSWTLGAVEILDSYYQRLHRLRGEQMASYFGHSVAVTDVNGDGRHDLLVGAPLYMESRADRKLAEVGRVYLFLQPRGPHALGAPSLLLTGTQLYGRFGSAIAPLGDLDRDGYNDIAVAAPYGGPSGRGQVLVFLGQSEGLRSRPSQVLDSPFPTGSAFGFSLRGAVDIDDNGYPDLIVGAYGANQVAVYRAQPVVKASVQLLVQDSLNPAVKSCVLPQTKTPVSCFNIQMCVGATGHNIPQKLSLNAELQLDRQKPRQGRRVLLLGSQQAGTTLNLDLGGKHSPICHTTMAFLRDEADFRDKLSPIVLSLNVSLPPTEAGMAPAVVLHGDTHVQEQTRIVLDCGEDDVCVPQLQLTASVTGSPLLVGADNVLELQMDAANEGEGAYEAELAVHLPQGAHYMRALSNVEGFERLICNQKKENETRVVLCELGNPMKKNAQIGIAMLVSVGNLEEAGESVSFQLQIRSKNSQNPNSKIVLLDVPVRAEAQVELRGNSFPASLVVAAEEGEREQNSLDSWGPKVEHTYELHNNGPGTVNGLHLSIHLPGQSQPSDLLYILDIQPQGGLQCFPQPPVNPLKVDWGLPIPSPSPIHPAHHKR
integrin αIIbβ3, sequence (P08514 891-1039): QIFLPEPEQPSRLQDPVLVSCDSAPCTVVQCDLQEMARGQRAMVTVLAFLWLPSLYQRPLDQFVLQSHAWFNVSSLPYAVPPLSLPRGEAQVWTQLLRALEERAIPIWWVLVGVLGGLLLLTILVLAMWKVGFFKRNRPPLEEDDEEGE
integrin αIIbβ3, sequence (P05106 27-788): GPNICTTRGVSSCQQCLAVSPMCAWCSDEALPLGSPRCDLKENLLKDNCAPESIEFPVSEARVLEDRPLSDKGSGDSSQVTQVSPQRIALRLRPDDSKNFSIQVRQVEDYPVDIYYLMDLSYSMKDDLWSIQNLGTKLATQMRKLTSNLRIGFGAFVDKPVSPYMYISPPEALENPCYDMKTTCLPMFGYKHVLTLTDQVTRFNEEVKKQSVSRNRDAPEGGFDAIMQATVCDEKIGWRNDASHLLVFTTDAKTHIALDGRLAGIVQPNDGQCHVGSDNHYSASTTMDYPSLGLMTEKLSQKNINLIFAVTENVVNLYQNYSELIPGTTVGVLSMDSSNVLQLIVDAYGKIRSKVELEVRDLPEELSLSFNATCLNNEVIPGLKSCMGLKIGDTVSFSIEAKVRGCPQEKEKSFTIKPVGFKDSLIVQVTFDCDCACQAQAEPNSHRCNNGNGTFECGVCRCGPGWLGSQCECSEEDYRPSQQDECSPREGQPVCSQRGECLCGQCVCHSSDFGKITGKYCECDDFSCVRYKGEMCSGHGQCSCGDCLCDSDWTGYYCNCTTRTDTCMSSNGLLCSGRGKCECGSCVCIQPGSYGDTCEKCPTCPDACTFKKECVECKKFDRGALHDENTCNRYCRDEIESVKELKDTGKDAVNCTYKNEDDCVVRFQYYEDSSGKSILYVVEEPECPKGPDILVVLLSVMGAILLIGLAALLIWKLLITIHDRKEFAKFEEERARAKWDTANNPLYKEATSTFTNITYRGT

Regarding `CCCC(=O)NC(Cc1ccc2cc(OCc3ccc(C(=N)N)cc3)ccc2c1)C(=O)O` (stereo not shown) [ND-1, 2-butyramido-3-(6-((4-carbamimidoylbenzyl)oxy)naphthalen-2-yl)propanoic acid], the IC50 worked out at 3.12 µM.
